We go through 5 compounds from patent US8440670B2, “Pyridopyrazindione derivative and its use as an antiulcer drug” (Innovative Pharmacology Research OOO (IPHAR), priority 2010, dated 2013).

The term Ki denotes the dissociation constant of the complex between target and ligand, obtained from inhibition or displacement.

Like-named read-outs stand apart in the source and are kept apart here.

Series [1] is classed as in vivo. An excerpt:
Studying the Toxicity (LD50) of Studied Compounds Following Single Administration

Series [2] deals with T1, H,K-ATPase of rabbit gastric mucosa (Oryctolagus cuniculus, UniProt P27112).
T1 construct: a white layer was seen on the borderline of 4% and 12% Ficoll that was a microsome fraction, enriched with H,K-ATPase; from tissue; host or cells: rabbit gastric (stomach) mucosa microsomes
T1 sequence (P27112 whole entry): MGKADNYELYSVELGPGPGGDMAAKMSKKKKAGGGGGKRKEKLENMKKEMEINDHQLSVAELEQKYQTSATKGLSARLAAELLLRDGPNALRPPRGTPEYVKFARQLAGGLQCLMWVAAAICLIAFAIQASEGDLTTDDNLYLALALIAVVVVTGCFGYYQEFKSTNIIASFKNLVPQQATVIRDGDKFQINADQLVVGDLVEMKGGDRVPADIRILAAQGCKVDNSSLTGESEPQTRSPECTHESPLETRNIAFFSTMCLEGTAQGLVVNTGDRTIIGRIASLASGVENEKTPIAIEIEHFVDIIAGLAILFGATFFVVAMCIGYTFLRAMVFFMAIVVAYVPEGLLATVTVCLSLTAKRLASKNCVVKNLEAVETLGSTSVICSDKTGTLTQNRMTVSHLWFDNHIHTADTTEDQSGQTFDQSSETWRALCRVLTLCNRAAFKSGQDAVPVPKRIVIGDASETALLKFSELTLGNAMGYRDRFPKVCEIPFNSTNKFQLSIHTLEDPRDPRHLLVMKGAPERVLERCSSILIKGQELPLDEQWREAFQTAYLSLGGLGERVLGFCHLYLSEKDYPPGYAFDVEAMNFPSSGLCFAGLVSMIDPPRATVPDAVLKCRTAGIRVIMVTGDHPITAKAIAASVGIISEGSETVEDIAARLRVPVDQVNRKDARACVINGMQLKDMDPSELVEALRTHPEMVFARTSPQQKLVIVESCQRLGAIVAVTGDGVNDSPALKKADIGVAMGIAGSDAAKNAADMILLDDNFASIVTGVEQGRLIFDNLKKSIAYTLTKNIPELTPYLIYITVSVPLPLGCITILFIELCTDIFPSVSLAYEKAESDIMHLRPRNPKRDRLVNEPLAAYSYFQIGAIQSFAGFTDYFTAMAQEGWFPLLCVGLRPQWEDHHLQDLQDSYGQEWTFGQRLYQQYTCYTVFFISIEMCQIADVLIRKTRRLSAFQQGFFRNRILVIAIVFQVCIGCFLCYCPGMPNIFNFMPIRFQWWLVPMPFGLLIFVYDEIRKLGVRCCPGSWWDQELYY
T1 sequence (P18597 whole entry partner): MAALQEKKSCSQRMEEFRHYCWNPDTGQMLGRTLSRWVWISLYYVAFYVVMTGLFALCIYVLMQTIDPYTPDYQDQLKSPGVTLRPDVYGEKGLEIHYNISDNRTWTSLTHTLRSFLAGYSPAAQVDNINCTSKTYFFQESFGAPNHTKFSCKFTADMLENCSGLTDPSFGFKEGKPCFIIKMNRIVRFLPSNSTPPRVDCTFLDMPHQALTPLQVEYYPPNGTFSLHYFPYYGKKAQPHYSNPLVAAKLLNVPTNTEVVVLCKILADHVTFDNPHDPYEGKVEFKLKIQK
The series can be described thus: Action on enzyme activity of H,K-ATPase of rabbit gastric mucosa (inorganic phosphate from ATP hydrolysis). Format: biochemical. The following applies: for IC50: read-out: I50, inhibition of H,K-ATPase. The protocol:
Microsome preparation, enriched with H+, K+-ATPase, was produced from the rabbit stomach mucosa using a method proposed by Farley and Faller.
Gastric mucosa was produced from a decapitated rabbit. All operations were carried out in ice. The stomach was cut at the greatest curve line, washed and scrubbed. Obtained mucosa was frozen and kept at −80° C. temperature.
To obtain a microsome preparation enriched with H,K-ATPase, gastric mucosa was defrozen and homogenized in extraction medium (0.25 mol sucrose, 5 mmol PIPES, 20 mmol Tris (THAM), ph 7.4) by a Polytron-class homogenizer (max rotations 30/sec). Mass ratio of tissue to extraction medium—1:20.
The homogenate was then centrifuged for 10 min at 10000 g. The sediment was discarded and supernatant was them centrifuged for 1 hour at 100000 g. The produced sediment was re-suspended in extraction medium (using the minimal volume necessary for re-suspension). The suspension was layered above Ficoll 400, prepared in the extraction medium: 12% Ficoll solution, 4% Ficoll solution. It was further centrifuged for 180 min at 100000 g. After centrifuging, a white layer was seen on the borderline of 4% and 12% Ficoll that was a microsome fraction, enriched with H,K-ATPase. The fraction was collected, divided into aliquots and kept at −80° C.
The effect was measured by the growth of inorganic phosphate that is produced during ATP hydrolysis. The concentration was measured using Ratbun and Betlah method. The incubation medium contained: 30 mmol imidazole, ph 7.4, 3 mmol MgCl2, 130 mmol NaCl, 20 mmol KCl, 3 mmol ATP, 2 mmol ouabain, 0.1 mmol EGTA, 2.25 μmol valinomycin, 5 mmol NaN3, 5 μmol of CCCP (Carbonyl cyanide m-chlorophenyl hydrazone).
Incubation medium and defrozen and homogenized microsome fraction were added into incubation sample. The sample was incubated for 20 min at 37° C., then the reaction was stopped by a cold stop-solution (3 mol sodium acetate, 3.7% formaldehyde, pH 4.3).
To evaluate the content of phosphate, produced during enzymatic hydrolysis of ATP, 2% ammonium molybdate solution and tin chloride solution (3 mg/ml) was into the sample. After the appearance of blue color, after 15 minutes, the samples were studied by colorimetry using wavelength of 650 nm
The H,K-ATPase activity was determined as activity inhibited by 0.1 mmol SCH-28080. […] The concentration of the studied compound was varied in range of 10^−8 to 10^−4 mol.
Possible competition between compound I and potassium ions was studied. To achieve this, the relation of H,K-ATPase and KCl concentration was studied, and then the inhibitory action of compound I on this enzyme in saturated (20 μmol) and unsaturated (2 μmol) concentrations of KCl was studied.

Series [3] deals with stimulated gastric acid secretion. The series can be described thus: Gastric secretion stimulated by histamine, pentagastrin and 1-aminopyrene. Format: in vivo, rats. Also noted: inhibition of 1-aminopyrene-induced secretion: concentration or dose not given beside the values. As to the method: 2.2. Studying gastric secretion stimulated by histamine, pentagastrin and 1-aminopyrene.
The study was conducted using male rats weighting 180-200 g. The animals were deprived of food for 24 hours, water access was not limited. Before putting a ligature on the pylorus, one group of animals was administered histamine (2.5 mg/kg) subcutaneously, second group was administered pentagastrin ([…]) subcutaneously, third group was administered 1-aminopyrene 1 mg/kg. The studied compound was administered in 100 mg/kg dose as water suspension, with the addition of Tween-80,
1 and 3 hours before the ligature of pylorus. Control animals were given distilled water with the addition of Tween-80. Omeprazole in 50 mg/kg dose and famotidine in 25 and 50 mg/kg doses were used as the drugs of comparison. 4 hours after the operation stomach contents were studied: secretion volume per 100 g of animal mass, gastric acid pH, free hydrochloric acid and general acidity of gastric acid.

For series [4], the system named is basal gastric acid secretion. Put plainly: Influence on basal secretion in rats (pylorus ligature). Format: in vivo. The protocol:
2.1. Studying the influence of the compound on basal secretion in rats.
The study was conducted using male rats weighting 180-200 g. The animals were deprived of food for 24 hours, water access was not limited. Using ether anesthesia their abdomens were opened and a ligature put on the pylorus. […] The studied compound was administered in 100 mg/kg dose as water suspension, with the addition of Tween-80, 60 minutes before the ligature of pylorus. Control animals were given distilled water with the addition of Tween-80. Omeprazole in 50 mg/kg dose and famotidine in 25 and 50 mg/kg doses were used as drugs of comparison.

For another series, the system named is intestinal peristalsis. The series can be described thus: Intestinal peristalsis study (activated charcoal). The format is in vivo. Particulars: mice, given 60 minutes before activated charcoal. The protocol: 3.1. Studying intestinal peristalsis.
The studied compounds were administered to male mice (body weight 22-24 g) by a tube into the stomach 60 minutes before the administration of activated charcoal (0.3 ml of 10% suspension into the stomach). After 2 hours the animals were sacrificed by CO2 and the length of small intestine filled with charcoal was measured in cm. Control group animals were administered 0.3 ml of water, cerucal in 25 mg/kg dose was chosen as the drug of comparison.

The next series has as its target H,K-ATPase (Homo sapiens, UniProt P20648). The following applies: K+-competitive; read-out: Ki (inhibition constant); cited from earlier work.

H,K-ATPase, sequence (P20648 whole entry): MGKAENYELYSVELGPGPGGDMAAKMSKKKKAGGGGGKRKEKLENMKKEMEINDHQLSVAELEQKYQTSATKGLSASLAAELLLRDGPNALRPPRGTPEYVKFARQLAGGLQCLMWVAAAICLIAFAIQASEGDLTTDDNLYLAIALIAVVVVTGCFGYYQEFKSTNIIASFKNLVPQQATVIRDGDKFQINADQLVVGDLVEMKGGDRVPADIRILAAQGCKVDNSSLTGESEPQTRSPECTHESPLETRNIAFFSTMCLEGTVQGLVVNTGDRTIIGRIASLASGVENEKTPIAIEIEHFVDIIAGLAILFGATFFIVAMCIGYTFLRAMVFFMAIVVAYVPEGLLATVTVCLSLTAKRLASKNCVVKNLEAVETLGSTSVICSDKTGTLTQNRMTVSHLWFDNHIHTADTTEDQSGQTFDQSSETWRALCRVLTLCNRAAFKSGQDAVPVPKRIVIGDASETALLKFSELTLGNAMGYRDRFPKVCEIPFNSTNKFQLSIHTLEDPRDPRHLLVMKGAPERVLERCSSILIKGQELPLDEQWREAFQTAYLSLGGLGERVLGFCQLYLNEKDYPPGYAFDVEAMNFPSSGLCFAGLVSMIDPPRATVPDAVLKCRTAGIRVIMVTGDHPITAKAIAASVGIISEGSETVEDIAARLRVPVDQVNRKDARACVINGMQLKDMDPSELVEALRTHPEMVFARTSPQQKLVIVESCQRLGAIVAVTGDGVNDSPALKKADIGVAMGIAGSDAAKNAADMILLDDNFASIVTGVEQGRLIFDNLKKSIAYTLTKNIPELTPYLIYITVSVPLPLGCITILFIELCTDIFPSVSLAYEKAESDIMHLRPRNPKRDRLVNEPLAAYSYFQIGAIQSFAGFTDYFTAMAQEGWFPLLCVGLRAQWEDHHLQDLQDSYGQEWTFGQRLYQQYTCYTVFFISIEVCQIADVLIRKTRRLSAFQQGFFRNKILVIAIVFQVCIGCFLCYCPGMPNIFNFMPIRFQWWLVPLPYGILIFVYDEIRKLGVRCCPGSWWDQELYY
H,K-ATPase, sequence (P51164 whole entry partner): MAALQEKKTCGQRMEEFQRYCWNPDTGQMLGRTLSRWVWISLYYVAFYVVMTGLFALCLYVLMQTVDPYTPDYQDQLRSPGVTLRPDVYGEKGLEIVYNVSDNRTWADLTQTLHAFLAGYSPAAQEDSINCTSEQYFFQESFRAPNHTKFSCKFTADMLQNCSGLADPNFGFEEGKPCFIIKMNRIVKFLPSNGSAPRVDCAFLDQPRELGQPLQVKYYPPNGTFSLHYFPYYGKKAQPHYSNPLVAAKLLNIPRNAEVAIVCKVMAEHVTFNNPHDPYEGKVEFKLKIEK

Regarding `CCOc1ccc(CCN2CC(=O)N3CCCC(C4=CC(=O)C=CC4O)=C3C2=O)cc1` (centres unmarked) [Compound I, 9-(quinonil-2)-2-p-ethoxyphenylethyl-4,5,6,7,8,9,10,11-octahydropyrido[1,2-a]pyrazindione-1,4], the general toxicity entry in series [1] (in vivo) was “low-toxic”. Besides, the IC50 in series [2] (2 μmol KCl (unsaturated)) came out at 10000 nM; in series [2] (20 μmol KCl (saturated)), 1000 nM. In series [2] (2 and 20 μmol KCl), the “competition with K+ ions” value is “does not compete with K+ ions”. Moreover, the “reversibility of effect on H,K-ATPase” value in series [2] (dilution of enzyme-inhibitor complex) is given as “reversible”. The “inhibition of histamine-induced secretion” value stood at 57% in series [3] (after 3 hours) and 40% in series [3] (one hour after administration). The “inhibition of 1-aminopyrene-induced secretion” value in series [3] (time not stated) stood at 50%. In addition, in series [3] (time not stated), the “inhibition of pentagastrin-induced secretion” value is “about 54%”. In addition, the “inhibition of basal gastric acid secretion level” value in series [4] (100 mg/kg, time not stated) is “does not inhibit basal gastric acid secretion level”. The “slowing of intestinal peristalsis” value in the series with intestinal peristalsis is “does not influence peristalsis”.

Take `CNc1nc2c(C)cccc2c2c1CCN2c1ccccc1C` [SK&F96356]: the Ki on H,K-ATPase is 70 nM.

Consider `NC(N)=Nc1nc(CSCCC(N)=NS(N)(=O)=O)cs1` [famotidine], for which the entries for the “inhibition of 1-aminopyrene-induced secretion” value in series [3] (after 1 hour) and in series [3] (after 3 hours) were 36% and 40%, respectively. In addition, the “inhibition of histamine-induced secretion” value in series [3] (after 3 hours) worked out at 95%; in series [3] (one hour after administration) it was 90%. Moreover, the “inhibition of pentagastrin-induced secretion” value in series [3] (time not stated) amounted to 40%. For the same compound, the “inhibition of basal secretion” value in series [4] (after three hours) is given as 80%; in series [4] (one hour after administration) it was 56%. For the same compound, in the series with intestinal peristalsis, the “slowing of intestinal peristalsis” value is given as “does not influence peristalsis”.

Regarding `COc1ccc2[nH]c([S+]([O-])Cc3ncc(C)c(OC)c3C)nc2c1` (centres unmarked) [omeprazole], in series [1] (single administration), the general toxicity result was “low-toxic”. The “inhibition of histamine-induced secretion” value in series [3] (after 3 hours) is recorded as 80%; in series [3] (one hour after administration), 70%. In addition, the “inhibition of 1-aminopyrene-induced secretion” value in series [3] (time not stated) is recorded as “about 90%”. For the same compound, the “inhibition of pentagastrin-induced secretion” value in series [3] (time not stated) is “about 90%”. Further, the “inhibition of basal secretion” value was determined as 40% in series [4] (after three hours) and 25% in series [4] (one hour after administration). In addition, the “slowing of intestinal peristalsis” value with intestinal peristalsis is 35%.

As for SCH-28080, the “inhibition of H,K-ATPase activity” value in series [2] (0.1 mmol inhibitor) is recorded as “about 30%”.
